Tests used:
Format in all cases: cell-based
[1] = molecular target: Met (phospho-Met, HGF-stimulated PC-3 prostate cancer cells) (Homo sapiens (Human), UniProt P08581); test: Met autophosphorylation ELISA in PC-3 cells (Example F); settings: cellular activity; Met autophosphorylation ELISA in PC-3 cells; read-out: c-Met IC50
Procedure, shortened: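 Sandwich ELISA for phospho-Met (panTyr) in PC-3 lysates. Cells starved 3 h serum-free, compound 1 h (8-pt curve, 0.3% DMSO), HGF 100 ng/mL 10 min. 100% = HGF + DMSO; 0% = HGF + reference inhibitor. IC50 by 4-parameter fit.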

[2] = molecular target: Mer (phospho-Mer, MERTK-transfected 293A cells) (Homo sapiens (Human), UniProt Q12866); test: Mer autophosphorylation ELISA in transient transfected 293A cells (Example H); settings: cellular activity; Mer autophosphorylation ELISA in transient transfected 293A cells
Procedure, shortened: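 IC50 from 4-parameter logistic fit of phospho-Mer levels, quantified by ELISA against a phospho-Mer standard in lysates of MERTK-transfected 293A cells. Cells exposed 1 h to 8-point serial dilutions, serum-free, 0.3% DMSO; controls: DMSO (100%) and reference inhibitor (0%).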

[3] = molecular target: AXL (phospho-AXL, Gas6-stimulated A-172 glioblastoma cells) (Homo sapiens (Human), UniProt P30530); test: AXL autophosphorylation ELISA in A-172 cells (Example E); settings: cellular activity; AXL autophosphorylation ELISA in A-172 cells; read-out: Axl IC50
Method: A-172 cells were incubated at 37° C., 5% CO2 for 24 h and then starved for 24 h in serum-free medium. Test compounds were serially diluted to produce an 8-point dose curve in fresh serum-free medium to a final concentration of 0.3% DMSO (vehicle) and added to the cells and incubated for 1 h. […] Lysates were collected and 100 μL/well added into the human phospho-AXL DuoSet IC ELISA (R&D Systems #DYC2228-2). […] Positive control wells (100% activity) contained Gas6-stimulated, DMSO-treated cell lysates. Negative control wells (0% activity) contained Gas6-stimulated, reference inhibitor-treated cell lysates. IC50 values were calculated by nonlinear regression analysis using a 4-parameter logistic curve fit in ActivityBase XE (IDBS).

[4] = molecular target: KDR (phospho-KDR, VEGF165-stimulated HUVEC cells) (Homo sapiens (Human), UniProt P35968); test: KDR autophosphorylation ELISA in HUVEC cells (Example G); settings: cellular activity; KDR autophosphorylation ELISA in HUVEC cells
Procedure, shortened: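 First, endothelial cells were cultured a day, then kept without serum for another day. Next came 1 h with serially diluted compound, a brief 5 min VEGF165 stimulus (100 ng/mL), rapid lysis, and ELISA detection of receptor phosphorylation relative to stimulated and non-stimulated controls.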

Chain of Met (phospho-Met, HGF-stimulated PC-3 prostate cancer cells) (P08581 25-1390): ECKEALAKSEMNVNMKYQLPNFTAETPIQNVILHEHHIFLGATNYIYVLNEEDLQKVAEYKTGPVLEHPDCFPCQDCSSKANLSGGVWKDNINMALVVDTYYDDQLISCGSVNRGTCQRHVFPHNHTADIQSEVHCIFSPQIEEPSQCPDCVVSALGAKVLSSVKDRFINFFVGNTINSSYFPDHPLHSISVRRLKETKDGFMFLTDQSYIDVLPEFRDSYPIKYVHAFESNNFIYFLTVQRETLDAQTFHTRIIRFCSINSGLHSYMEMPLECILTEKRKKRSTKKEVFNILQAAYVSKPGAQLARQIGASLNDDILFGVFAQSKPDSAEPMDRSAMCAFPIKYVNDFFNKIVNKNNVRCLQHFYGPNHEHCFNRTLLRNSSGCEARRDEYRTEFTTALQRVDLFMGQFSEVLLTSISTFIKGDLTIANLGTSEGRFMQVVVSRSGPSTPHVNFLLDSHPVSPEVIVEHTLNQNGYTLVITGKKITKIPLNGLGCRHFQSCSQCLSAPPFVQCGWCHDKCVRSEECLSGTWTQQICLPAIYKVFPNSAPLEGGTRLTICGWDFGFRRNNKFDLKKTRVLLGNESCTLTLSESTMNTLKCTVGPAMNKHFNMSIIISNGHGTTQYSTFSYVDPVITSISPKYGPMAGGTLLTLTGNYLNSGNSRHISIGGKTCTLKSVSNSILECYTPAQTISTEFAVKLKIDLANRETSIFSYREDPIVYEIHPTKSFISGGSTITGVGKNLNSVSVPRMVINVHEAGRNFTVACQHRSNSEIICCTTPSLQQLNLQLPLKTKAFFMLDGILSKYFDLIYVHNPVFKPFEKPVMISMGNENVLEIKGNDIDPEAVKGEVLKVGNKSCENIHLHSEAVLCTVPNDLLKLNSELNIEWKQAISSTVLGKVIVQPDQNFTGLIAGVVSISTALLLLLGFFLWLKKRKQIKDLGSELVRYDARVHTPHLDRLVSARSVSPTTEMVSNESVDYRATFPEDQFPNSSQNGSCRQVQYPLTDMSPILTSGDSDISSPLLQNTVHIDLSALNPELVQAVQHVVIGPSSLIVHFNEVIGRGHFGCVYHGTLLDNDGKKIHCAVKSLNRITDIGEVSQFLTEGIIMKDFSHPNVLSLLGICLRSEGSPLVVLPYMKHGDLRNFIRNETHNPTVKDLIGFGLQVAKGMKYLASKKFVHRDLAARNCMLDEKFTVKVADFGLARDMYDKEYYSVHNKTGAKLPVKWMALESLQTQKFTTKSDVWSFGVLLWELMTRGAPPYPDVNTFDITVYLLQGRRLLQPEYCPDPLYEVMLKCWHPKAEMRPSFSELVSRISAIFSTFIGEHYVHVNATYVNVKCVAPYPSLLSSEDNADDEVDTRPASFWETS
Chain of AXL (phospho-AXL, Gas6-stimulated A-172 glioblastoma cells) (P30530 26-894): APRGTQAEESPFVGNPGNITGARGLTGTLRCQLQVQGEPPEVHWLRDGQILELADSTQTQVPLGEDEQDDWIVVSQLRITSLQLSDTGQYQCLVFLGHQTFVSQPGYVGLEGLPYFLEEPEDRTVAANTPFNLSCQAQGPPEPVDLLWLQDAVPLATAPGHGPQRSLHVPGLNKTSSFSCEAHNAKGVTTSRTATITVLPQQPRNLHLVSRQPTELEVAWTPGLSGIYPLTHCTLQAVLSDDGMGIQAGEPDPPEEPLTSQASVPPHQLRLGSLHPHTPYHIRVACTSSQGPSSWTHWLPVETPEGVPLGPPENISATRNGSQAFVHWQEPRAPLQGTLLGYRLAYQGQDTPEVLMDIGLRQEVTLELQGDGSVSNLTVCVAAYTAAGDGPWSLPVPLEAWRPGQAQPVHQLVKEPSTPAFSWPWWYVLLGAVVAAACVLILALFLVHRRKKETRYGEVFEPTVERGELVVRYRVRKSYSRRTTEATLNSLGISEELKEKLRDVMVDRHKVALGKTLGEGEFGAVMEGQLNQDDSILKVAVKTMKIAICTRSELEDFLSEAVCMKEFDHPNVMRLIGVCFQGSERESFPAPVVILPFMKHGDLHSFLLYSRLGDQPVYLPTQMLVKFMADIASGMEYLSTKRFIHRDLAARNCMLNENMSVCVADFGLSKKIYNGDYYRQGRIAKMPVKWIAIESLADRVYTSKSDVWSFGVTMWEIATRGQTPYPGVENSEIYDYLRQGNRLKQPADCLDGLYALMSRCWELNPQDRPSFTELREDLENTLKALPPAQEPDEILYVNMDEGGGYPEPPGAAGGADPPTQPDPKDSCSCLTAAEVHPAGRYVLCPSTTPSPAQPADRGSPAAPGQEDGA
Chain of Mer (phospho-Mer, MERTK-transfected 293A cells) (Q12866 21-999): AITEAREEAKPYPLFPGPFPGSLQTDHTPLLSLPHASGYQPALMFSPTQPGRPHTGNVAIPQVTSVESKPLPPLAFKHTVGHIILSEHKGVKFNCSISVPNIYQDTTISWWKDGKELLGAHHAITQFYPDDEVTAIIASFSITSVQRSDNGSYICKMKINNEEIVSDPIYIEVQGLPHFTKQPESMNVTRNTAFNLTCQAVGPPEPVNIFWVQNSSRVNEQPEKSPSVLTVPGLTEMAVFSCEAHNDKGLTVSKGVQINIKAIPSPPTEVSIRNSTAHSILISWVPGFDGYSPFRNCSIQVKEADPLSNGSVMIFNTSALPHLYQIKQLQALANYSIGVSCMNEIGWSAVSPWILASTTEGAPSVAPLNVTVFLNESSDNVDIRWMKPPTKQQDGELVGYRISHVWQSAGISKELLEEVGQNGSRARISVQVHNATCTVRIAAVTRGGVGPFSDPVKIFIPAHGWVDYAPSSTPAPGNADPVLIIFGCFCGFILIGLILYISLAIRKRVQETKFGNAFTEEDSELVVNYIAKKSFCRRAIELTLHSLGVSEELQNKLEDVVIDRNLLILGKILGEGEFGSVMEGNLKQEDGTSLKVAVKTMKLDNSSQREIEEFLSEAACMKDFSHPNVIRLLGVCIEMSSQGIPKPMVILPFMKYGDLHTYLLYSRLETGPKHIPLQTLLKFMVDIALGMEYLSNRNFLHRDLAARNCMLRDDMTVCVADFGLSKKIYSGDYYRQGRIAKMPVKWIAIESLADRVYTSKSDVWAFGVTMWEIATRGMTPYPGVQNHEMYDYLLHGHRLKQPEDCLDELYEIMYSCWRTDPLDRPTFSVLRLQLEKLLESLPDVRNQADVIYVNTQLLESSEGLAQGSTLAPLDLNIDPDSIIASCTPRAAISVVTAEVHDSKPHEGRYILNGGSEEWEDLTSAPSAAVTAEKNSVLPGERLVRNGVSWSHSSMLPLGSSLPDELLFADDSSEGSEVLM
Chain of KDR (phospho-KDR, VEGF165-stimulated HUVEC cells) (P35968 20-1356): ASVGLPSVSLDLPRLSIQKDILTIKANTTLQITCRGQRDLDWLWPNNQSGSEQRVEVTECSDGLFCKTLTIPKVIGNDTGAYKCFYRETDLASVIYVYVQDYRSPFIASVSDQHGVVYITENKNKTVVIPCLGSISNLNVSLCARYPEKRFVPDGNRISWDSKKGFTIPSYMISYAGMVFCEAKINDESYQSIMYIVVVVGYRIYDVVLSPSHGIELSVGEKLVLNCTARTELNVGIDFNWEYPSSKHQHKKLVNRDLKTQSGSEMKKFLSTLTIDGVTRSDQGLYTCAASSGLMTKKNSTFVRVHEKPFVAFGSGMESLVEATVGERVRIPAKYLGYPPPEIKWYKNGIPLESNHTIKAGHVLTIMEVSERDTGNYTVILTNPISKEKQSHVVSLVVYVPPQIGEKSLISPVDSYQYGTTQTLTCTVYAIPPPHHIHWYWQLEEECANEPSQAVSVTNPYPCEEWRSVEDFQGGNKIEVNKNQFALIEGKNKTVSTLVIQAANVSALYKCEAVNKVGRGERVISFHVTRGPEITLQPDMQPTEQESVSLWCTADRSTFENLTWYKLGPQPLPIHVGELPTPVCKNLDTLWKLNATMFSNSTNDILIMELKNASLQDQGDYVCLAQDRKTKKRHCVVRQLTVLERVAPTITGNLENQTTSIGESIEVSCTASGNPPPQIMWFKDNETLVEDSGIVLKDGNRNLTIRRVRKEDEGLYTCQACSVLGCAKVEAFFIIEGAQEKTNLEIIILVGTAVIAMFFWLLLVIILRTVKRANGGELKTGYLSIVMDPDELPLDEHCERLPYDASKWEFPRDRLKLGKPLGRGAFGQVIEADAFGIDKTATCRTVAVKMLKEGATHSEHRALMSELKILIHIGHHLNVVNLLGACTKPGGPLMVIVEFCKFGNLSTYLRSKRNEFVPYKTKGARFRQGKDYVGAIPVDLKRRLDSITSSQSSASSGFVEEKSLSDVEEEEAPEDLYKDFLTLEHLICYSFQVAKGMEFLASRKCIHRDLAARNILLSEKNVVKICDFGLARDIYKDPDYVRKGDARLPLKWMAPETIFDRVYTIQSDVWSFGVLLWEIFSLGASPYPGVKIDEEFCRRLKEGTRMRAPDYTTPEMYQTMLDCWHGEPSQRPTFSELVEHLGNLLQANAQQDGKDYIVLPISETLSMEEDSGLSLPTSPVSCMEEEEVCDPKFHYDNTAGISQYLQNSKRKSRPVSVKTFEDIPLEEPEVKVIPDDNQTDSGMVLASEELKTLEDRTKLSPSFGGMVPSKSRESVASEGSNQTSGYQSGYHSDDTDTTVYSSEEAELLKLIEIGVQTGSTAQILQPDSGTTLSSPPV

Compound | IC50 [1] [nM] | IC50 [2] [nM] | IC50 [3] [nM] | IC50 [4] [nM]
CCn1cc(-c2ccc(F)cc2)c(=O)c(C(=O)Nc2ccc(Oc3ccnc4cc(OC)c(OC)nc34)cc2)c1C [Compound 244, N-[4-[(6,7-Dimethoxy-1,5-naphthyridin-4-yl)oxy]phenyl]-1-ethyl-5-(4-fluorophenyl)-2-methyl-4-oxopyridine-3-carboxamide] | < 100 | < 100 | < 100 | > 300
CCOc1nc2c(Oc3ccc(NC(=O)c4cnc(C)c(-c5ccc(F)cc5C)c4O)cc3F)ccnc2cc1OC [Compound 677, N-[4-[(6-ethoxy-7-methoxy-1,5-naphthyridin-4-yl)oxy]-3-fluorophenyl]-5-(4-fluoro-2-methylphenyl)-4-hydroxy-6-methylpyridine-3-carboxamide] | < 100 | < 100 | < 100 | < 100
CCOCc1nc(C)c(-c2ccc(F)cc2C)c(O)c1C(=O)Nc1ccc(Oc2ccnc3cc(OC)cnc23)c(F)c1 [Compound 667, 2-(ethoxymethyl)-N-[3-fluoro-4-[(7-methoxy-1,5-naphthyridin-4-yl)oxy]phenyl]-5-(4-fluoro-2-methylphenyl)-4-hydroxy-6-methylpyridine-3-carboxamide] | < 100 | < 100 | < 100 | > 300
COCc1cnn(-c2ccc(F)cc2)c(=O)c1C(=O)Nc1ccc(Oc2ccnc3cc(OC)c(OC)nc23)cc1 [Compound 537, N-[4-[(6,7-dimethoxy-1,5-naphthyridin-4-yl)oxy]phenyl]-2-(4-fluorophenyl)-5-(methoxymethyl)-3-oxopyridazine-4-carboxamide] | < 100 | < 100 | < 100 | < 100
C=Cc1c(C)c(C(=O)Nc2ccc(Oc3ccnc4cc(OCCOC)c(OC)nc34)cc2)c(=O)n(-c2ccc(F)cc2)c1C [Compound 741, 5-ethenyl-1-(4-fluorophenyl)-N-[4-[[6-methoxy-7-(2-methoxyethoxy)-1,5-naphthyridin-4-yl]oxy]phenyl]-4,6-dimethyl-2-oxopyridine-3-carboxamide] | < 100 | < 100 | < 100 | 100 to 300
COc1cc2nccc(Oc3ccc(NC(=O)c4cn5c(c(-c6ccc(F)cc6)c4=O)COCC5)cc3)c2nc1OC [Compound 660, N-[4-[(6,7-dimethoxy-1,5-naphthyridin-4-yl)oxy]phenyl]-9-(4-fluorophenyl)-8-oxo-3,4-dihydro-1H-pyrido[2,1-c][1,4]oxazine-7-carboxamide] | < 100 | < 100 | < 100 | 100 to 300
COc1cnc2c(Oc3ccc(NC(=O)c4cnc(C)c(-c5ccc(OC)c(C)c5)c4O)cc3F)ccnc2c1 [Compound 699, N-[3-fluoro-4-[(7-methoxy-1,5-naphthyridin-4-yl)oxy]phenyl]-4-hydroxy-5-(4-methoxy-3-methylphenyl)-6-methylpyridine-3-carboxamide] | 100 to 300 | < 100 | > 300 | < 100
C=C(C)c1cnc2c(Oc3ccc(NC(=O)c4cnc(C)n(-c5ccc(F)cc5)c4=O)cc3F)ccnc2c1 [Compound 465, 1-(4-fluorophenyl)-N-[3-fluoro-4-[(7-prop-1-en-2-yl-1,5-naphthyridin-4-yl)oxy]phenyl]-2-methyl-6-oxopyrimidine-5-carboxamide] | < 100 | < 100 | < 100 | 100 to 300
C=C(C)c1cnc2c(Oc3ccc(NC(=O)c4nnc(C)c(-c5ccc(F)cc5)c4OC)cc3F)ccnc2c1 [Compound 478, 5-(4-fluorophenyl)-N-[3-fluoro-4-[(7-prop-1-en-2-yl-1,5-naphthyridin-4-yl)oxy]phenyl]-4-methoxy-6-methylpyridazine-3-carboxamide] | < 100 | < 100 | < 100 | < 100
COc1cc2nccc(Oc3ccc(NC(=O)c4c(C)ncc(-c5ccc(F)c(F)c5)c4O)cc3F)c2nc1OC [Compound 796, 5-(3,4-difluorophenyl)-N-[4-[(6,7-dimethoxy-1,5-naphthyridin-4-yl)oxy]-3-fluorophenyl]-4-hydroxy-2-methylpyridine-3-carboxamide] | < 100 | < 100 | < 100 | < 100
C=C(C)c1cnc2c(Oc3ccc(NC(=O)c4c(C)ncc(-c5ccc(F)cc5C)c4O)cc3F)ccnc2c1 [Compound 474, 5-(4-fluoro-2-methylphenyl)-N-[3-fluoro-4-[(7-prop-1-en-2-yl-1,5-naphthyridin-4-yl)oxy]phenyl]-4-hydroxy-2-methylpyridine-3-carboxamide] | < 100 | < 100 | < 100 | < 100
CNC(=O)Cc1nc2c(Oc3ccc(NC(=O)c4cnc(C)c(-c5ccc(F)cc5)c4O)cc3F)ccnc2cc1OC [Compound 570, N-[3-Fluoro-4-[[7-methoxy-6-[2-(methylamino)-2-oxoethyl]-1,5-naphthyridin-4-yl]oxy]phenyl]-5-(4-fluorophenyl)-4-hydroxy-6-methylpyridine-3-carboxamide] | < 100 | < 100 | < 100 | < 100
COc1cc2nccc(Oc3ccc(NC(=O)c4cn(C(F)F)c(C)c(-c5ccc(F)cc5)c4=O)cc3F)c2nc1OC [Compound 668, 1-(difluoromethyl)-N-[4-[(6,7-dimethoxy-1,5-naphthyridin-4-yl)oxy]-3-fluorophenyl]-5-(4-fluorophenyl)-6-methyl-4-oxopyridine-3-carboxamide] | < 100 | < 100 | < 100 | < 100
COc1cc2nccc(Oc3ccc(NC(=O)c4cn(C5(C)COC5)cc(-c5ccc(F)cc5)c4=O)cc3F)c2nc1OC [Compound 54, N-[4-[(6,7-Dimethoxy-1,5-naphthyridin-4-yl)oxy]-3-fluorophenyl]-5-(4-fluorophenyl)-1-(3-methyloxetan-3-yl)-4-oxopyridine-3-carboxamide] | < 100 | < 100 | < 100 | > 300
COc1cnc2c(Oc3ccc(NC(=O)c4c(C)c(C)c(C)n(-c5ccc(F)cc5)c4=O)cc3F)ccnc2c1 [Compound 316, N-[3-Fluoro-4-[(7-methoxy-1,5-naphthyridin-4-yl)oxy]phenyl]-1-(4-fluorophenyl)-4,5,6-trimethyl-2-oxopyridine-3-carboxamide] | < 100 | < 100 | < 100 | < 100
COc1cc2nccc(Oc3ccc(NC(=O)c4c(C)c(C(N)=O)c(C)n(-c5ccc(F)cc5)c4=O)cc3)c2nc1OC [Compound 319, 5-N-[4-[(6,7-Dimethoxy-1,5-naphthyridin-4-yl)oxy]phenyl]-1-(4-fluorophenyl)-2,4-dimethyl-6-oxopyridine-3,5-dicarboxamide] | < 100 | < 100 | < 100 | > 300
COc1cnc2c(Oc3ccc(NC(=O)c4c(C)ncc(-c5ccc(F)c(C)c5)c4O)cc3F)ccnc2c1 [Compound 795, N-[3-fluoro-4-[(7-methoxy-1,5-naphthyridin-4-yl)oxy]phenyl]-5-(4-fluoro-3-methylphenyl)-4-hydroxy-2-methylpyridine-3-carboxamide] | < 100 | < 100 | < 100 | < 100
COCCOc1cnc2c(Oc3ccc(NC(=O)c4cc(C(C)=O)c(C)n(-c5ccc(F)cc5)c4=O)cc3F)ccnc2c1 [Compound 758, 5-acetyl-N-[3-fluoro-4-[[7-(2-methoxyethoxy)-1,5-naphthyridin-4-yl]oxy]phenyl]-1-(4-fluorophenyl)-6-methyl-2-oxopyridine-3-carboxamide] | < 100 | < 100 | < 100 | > 300
COc1cnc2c(Oc3ccc(NC(=O)c4c(C)nc(C)c(-c5ccc(OC)c(C)c5)c4O)cc3F)ccnc2c1 [Compound 692, N-[3-fluoro-4-[(7-methoxy-1,5-naphthyridin-4-yl)oxy]phenyl]-4-hydroxy-5-(4-methoxy-3-methylphenyl)-2,6-dimethylpyridine-3-carboxamide] | < 100 | < 100 | 100 to 300 | < 100
